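Cultured in 96-well plates, cells were exposed to test compound for 48 hours across five concentrations. GI50: concentration for 50% inhibition of growth.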 Active and inactive are the calls of the source. Rule as the data show it: active = GI50 up to about 1.1 µM and inactive = higher.
Key:
Experiment in all cases: DTP human tumour cell line panel, 48 h
786-0 = system: 786-0
A498 = system: A498
A549 = system: A549
ACHN = system: ACHN
BT-549 = system: BT-549
CAKI-1 = system: CAKI-1
CCRF-CEM = system: CCRF-CEM
COLO 205 = system: COLO 205
DU-145 = system: DU-145
EKVX = system: EKVX
HCC 2998 = system: HCC 2998
HCT-116 = system: HCT-116
HCT-15 = system: HCT-15
HL-60 = system: HL-60
HOP-62 = system: HOP-62
HOP-92 = system: HOP-92
HT-29 = system: HT-29
Hs-578T = system: Hs-578T
IGROV-1 = system: IGROV-1
K562 = system: K562
KM12 = system: KM12
LOX IMVI = system: LOX IMVI
M14 = system: M14
MCF7 = system: MCF7
MDA-MB-231 = system: MDA-MB-231
MDA-MB-435 = system: MDA-MB-435
MDA-N = system: MDA-N
MOLT-4 = system: MOLT-4
Malme-3M = system: Malme-3M
NCI-H226 = system: NCI-H226
NCI-H23 = system: NCI-H23
NCI-H460 = system: NCI-H460
NCI-H522 = system: NCI-H522
NCI/ADR-RES = system: NCI/ADR-RES
OVCAR-3 = system: OVCAR-3
OVCAR-4 = system: OVCAR-4
OVCAR-5 = system: OVCAR-5
OVCAR-8 = system: OVCAR-8
PC-3 = system: PC-3
RPMI-8226 = system: RPMI-8226
RXF 393 = system: RXF 393
SF-268 = system: SF-268
SF-295 = system: SF-295
SF-539 = system: SF-539
SK-MEL-28 = system: SK-MEL-28
SK-MEL-2 = system: SK-MEL-2
SK-MEL-5 = system: SK-MEL-5
SK-OV-3 = system: SK-OV-3
SN12C = system: SN12C
SNB-19 = system: SNB-19
SNB-75 = system: SNB-75
SR = system: SR
SW-620 = system: SW-620
T47D = system: T47D
TK-10 = system: TK-10
U-251 = system: U-251
UACC-257 = system: UACC-257
UACC-62 = system: UACC-62
UO-31 = system: UO-31

## C=CC(=O)N1C/C(=C\c2ccc(F)cc2)C(=O)/C(=C/c2ccc(F)cc2)C1
786-0
  GI50: 222 nM (active)
A498
  GI50: 568 nM (active)
A549
  GI50: 979 nM (active)
ACHN
  GI50: 259 nM (active)
BT-549
  GI50: 336 nM (active)
CAKI-1
  GI50: 475 nM (active)
CCRF-CEM
  GI50: 88.3 nM (active)
COLO 205
  GI50: 391 nM (active)
DU-145
  GI50: 1670 nM (inactive)
EKVX
  GI50: 887 nM (active)
HCC 2998
  GI50: 267 nM (active)
HCT-116
  GI50: 55.7 nM (active)
HCT-15
  GI50: 166 nM
HL-60
  GI50: 728 nM (active)
HOP-62
  GI50: 516 nM (active)
HOP-92
  GI50: 3030 nM (inactive)
HT-29
  GI50: 71 nM (active)
Hs-578T
  GI50: 235 nM (active)
IGROV-1
  GI50: 437 nM (active)
K562
  GI50: 185 nM (active)
KM12
  GI50: 193 nM (active)
LOX IMVI
  GI50: 92.5 nM (active)
M14
  GI50: 328 nM (active)
MCF7
  GI50: 168 nM (active)
MDA-MB-231
  GI50: 461 nM (active)
MDA-MB-435
  GI50: 299 nM (active)
MDA-N
  GI50: 157 nM (active)
MOLT-4
  GI50: 207 nM (active)
Malme-3M
  GI50: 735 nM (active)
NCI-H226
  GI50: 352 nM (active)
NCI-H23
  GI50: 1270 nM (inactive)
NCI-H460
  GI50: 593 nM (active)
NCI-H522
  GI50: 476 nM (active)
NCI/ADR-RES
  GI50: 365 nM (active)
OVCAR-3
  GI50: 360 nM (active)
OVCAR-4
  GI50: 339 nM (active)
OVCAR-5
  GI50: 622 nM (active)
OVCAR-8
  GI50: 280 nM (active)
PC-3
  GI50: 215 nM (active)
RPMI-8226
  GI50: 31.8 nM (active)
RXF 393
  GI50: 185 nM (active)
SF-268
  GI50: 206 nM (active)
SF-295
  GI50: 440 nM (active)
SF-539
  GI50: 214 nM (active)
SK-MEL-28
  GI50: 634 nM (active)
SK-MEL-2
  GI50: 843 nM (active)
SK-MEL-5
  GI50: 811 nM (active)
SK-OV-3
  GI50: 711 nM (active)
SN12C
  GI50: 454 nM (active)
SNB-19
  GI50: 944 nM (active)
SNB-75
  GI50: 350 nM (active)
SR
  GI50: 49.1 nM (active)
SW-620
  GI50: 162 nM (active)
T47D
  GI50: 4570 nM (inactive)
TK-10
  GI50: 1000 nM (active)
U-251
  GI50: 188 nM (active)
UACC-257
  GI50: 1190 nM (inactive)
UACC-62
  GI50: 142 nM (active)
UO-31
  GI50: 849 nM (active)

From ChEMBL document CHEMBL1201862, “PubChem BioAssay data set” (2004)
